# Key:
# [1] = biological target: T1, AAD1 (v1) (Sphingobium herbicidovorans, UniProt Q8KSC8); assay: Colorimetric phenol detection assay of AAD1 (v1) activity (purified enzyme or E. coli extract); type: biochemical; conditions: for A510, AAD1 (10x): 10 μg purified AAD1 (v1) per 0.16 ml assay; for activity of purified AAD1 (v1) on substrate: 1 mM substrate, 1 or 10 μg enzyme
# T1 construct: made in house; host or cells: E. coli BL-21 Star (DE3), plasmid pDAB3203
# [2] = biological target: AAD2 (v1) (Bradyrhizobium diazoefficiens, UniProt Q89UC4); assay: Colorimetric phenol assay of AAD2 (v1) E. coli extract / partially purified enzyme; type: biochemical, Bradyrhizobium japonicum; conditions: substrate 0.5 mM, 15 min, 25 mM MOPS pH 6.8; 3 μl AAD2 extract (42 μg protein)
# [3] = test system: wt ARBTH; assay: In vitro plate test of herbicide cross resistance: wild-type Arabidopsis; type: in vivo, Arabidopsis thaliana; conditions: 7 days
# Description: (§1) The ability of AAD1 (v3) to provide resistance to other aryloxyphenoxyalkanoate herbicides in transgenic Arabidopsis was determined using a modified in vitro plate assay. Seeds from wild-type Arabidopsis thaliana as well as Arabidopsis thaliana containing the plant optimized AAD1 (v3) gene (T4 homozygous plants id=PAAD1.315.064) were sterilized by agitating for 10 min in a 50% bleach solution. These seeds were then rinsed four times with sterile water to remove the bleach.
# (§2) Dose response assays utilized a nutrient media (see below) supplemented with various rates of test compounds. The test compounds were added to the heated media (55° C.) as concentrated solutions in DMSO. Control wells had the appropriate amount of DMSO without any additional compound. The final concentration of DMSO never exceeded 1% (v/v). After thorough mixing, a 6 mL aliquot of the warm media containing the appropriate concentration of compound was added to each well of a 6-well, flat bottom, polystyrene tissue culture tray (Falcon 353046, Becton Dickson and Company, Franklin Lakes, N.J.). After the media solidified, approximately 20 to 30 Arabidopsis seeds were applied on top of the solidified media and the remaining 2 mL of media was poured over the seeds. The plates were lightly agitated to disperse the seeds, covered and allowed to cool until the media had completely solidified. The plates were incubated for 7 days at 25° C. under continual fluorescent lighting (75 μE m^−2 s^−1). Nutrient Media Composition was as described in Example 2.2 and in Somerville and Orgen (1982).
# (§3) Assessment of Growth Reduction. The apical portion of the Arabidopsis plants grown in the treated media was assessed visually relative to the apical portion of the plants grown in the media containing only DMSO. Values were recorded as % growth reduction. Assessments of root growth inhibition of the Arabidopsis plants grown in the treated media were achieved by carefully extracting the plants from the media and measuring the length of the root. These root lengths were then compared to the root length of the control plants to determine a % growth reduction. A minimum of five plants were assessed for each treatment. The values recorded are an average of all the plants assessed. The calculated concentration to reach 50% inhibition effect (I50) were determined for both root and shoots of wildtype and AAD1-transformed Arabidopsis. The ratios of resistant to sensitive biotypes are included in Table 19. A ratio>2 for both root and shoot measurements generally signifies significant resistance. The higher the ratio, the greater the level of resistance. […] The broad phenoxy auxin resistance is the first reported in planta.
# [4] = test system: PAAD1.315.064 ARBTH; assay: In vitro plate test of herbicide cross resistance: homozygous T4 AAD1 (v3) Arabidopsis; type: in vivo, Arabidopsis thaliana; conditions: for root ratio / shoot ratio: resistant to sensitive biotype, >2 signifies resistance; for PAAD1.315.064 ARBTH root 150 / PAAD1.315.064 T3 ARBTH shoot 150: 7 days
# Description: as §1, §2, §3
# [5] = Table 4, substrate 1 mM, 1 μg purified AAD1 (v1) per 0.16 ml assay
# [6] = substrate 0.5 mM, 15 min, 25 mM MOPS pH 6.8, 4 μl AAD1 (32 μg protein) extract
smiles,measurement,setting,value
C[C@@H](Oc1ccc(Oc2nc3ccc(Cl)cc3o2)cc1)C(=O)O [(R)- fenoxaprop],"A510, AAD1",[1]; [5],0.408
same,"A510, AAD1 (10x)","[1]; Table 4, substrate 1 mM",0.597
same,"A510, AAD1",[1]; [6],0.14
same,A510 AAD2,[2],0
C[C@@H](Oc1ccc(Oc2cnc3cc(Cl)ccc3n2)cc1)C(=O)O [(R)- quizalofop],"A510, AAD1",[1]; [5],0.43
same,"A510, AAD1 (10x)","[1]; Table 4, substrate 1 mM",2.1
same,kcat,[1]; purified AAD1 (v1),0.315 s⁻¹
same,Vmax ± SE,"[1]; purified AAD1 (v1), Michaelis-Menten fit",0.57 ± 0.03 μmol min^−1 mg^−1 AAD1
same,"A510, AAD1",[1]; [6],0.27
same,A510 AAD2,[2],0.01
C[C@H](Oc1ccc(Oc2ccc(C#N)cc2F)cc1)C(=O)O [(S)- cyhalofop],activity of AAD1 (v1) E. coli extract on substrate,"[1]; 0.5 mM substrate, 4 μl extract, 15 min",no activity
same,activity of purified AAD1 (v1) on substrate,[1],Minimal activity
same,"A510, AAD1",[1]; [5],0.003
same,"A510, AAD1 (10x)","[1]; Table 4, substrate 1 mM",0.017
same,"A510, AAD1",[1]; [6],0
same,A510 AAD2,[2],0.15
Cc1cc(Cl)ccc1OCC(=O)O [MCPA],"rate of product formation relative to 2,4-D","[1]; 1 mM, 27 μg crude recombinant AAD1 (v1) per assay",55%
same,A510,"[1]; Table 8, 1 mM, 27 μg crude recombinant AAD1 (v1) extract from E. coli",0.097
same,"% 2,4-D","[1]; Table 8, relative to 2,4-D, crude AAD1 (v1) extract",55%
same,wt ARBTH root 150,[3],0.01 ppm
same,wt ARBTH shoot 150,[3],0.2 ppm
same,root ratio,[4],3
same,shoot ratio,[4],5
same,PAAD1.315.064 ARBTH root 150,[4],0.03 ppm
same,PAAD1.315.064 T3 ARBTH shoot 150,[4],1 ppm
Nc1c(Cl)c(Cl)nc(C(=O)O)c1Cl [Picloram],wt ARBTH root 150,[3],0.3 ppm
same,wt ARBTH shoot 150,[3],1 ppm
same,root ratio,[4],0.5
same,shoot ratio,[4],0.5
same,resistance afforded by AAD1 (v3) in plate test,[4]; root and shoot assessment,did not effectively protect
same,PAAD1.315.064 ARBTH root 150,[4],0.15 ppm
same,PAAD1.315.064 T3 ARBTH shoot 150,[4],0.5 ppm
CC(Oc1ccc(Oc2ncc(C(F)(F)F)cc2Cl)cc1)C(=O)O (stereo not drawn) [compound 8671],"A510, AAD1",[1]; [6],0.12
same,A510 AAD2,[2],0
O=C(O)COc1ccc(Oc2ncc(C(F)(F)F)cc2Cl)cc1 [haloxyfop- oxyacetate],activity of purified AAD1 (v1) on substrate,[1],cleaved very slowly
same,"A510, AAD1",[1]; [5],0.004
same,"A510, AAD1 (10x)","[1]; Table 4, substrate 1 mM",0.053
same,"A510, AAD1",[1]; [6],0
same,A510 AAD2,[2],0.22
